According to US20260258064A1 (SIRONAX LTD., priority 2023, published 2026):

biological target: T1, SARM1 (50-724) (Homo sapiens, UniProt Q6SZW1); experiment: SARM1 (50-724) enzymatic assay (LC-MS/MS); format: biochemical; conditions: Purified SARM1 (50-724) 2 nM, NMN as activator, NAD+ as substrate, 1 h at room temperature, read-out: IC50 (SARM1 inhibitory activity)
T1 construct: Purified SARM1 (50-724) with a final concentration of 2 nM was pre-incubated with a test compound
T1 sequence (Q6SZW1 50-724): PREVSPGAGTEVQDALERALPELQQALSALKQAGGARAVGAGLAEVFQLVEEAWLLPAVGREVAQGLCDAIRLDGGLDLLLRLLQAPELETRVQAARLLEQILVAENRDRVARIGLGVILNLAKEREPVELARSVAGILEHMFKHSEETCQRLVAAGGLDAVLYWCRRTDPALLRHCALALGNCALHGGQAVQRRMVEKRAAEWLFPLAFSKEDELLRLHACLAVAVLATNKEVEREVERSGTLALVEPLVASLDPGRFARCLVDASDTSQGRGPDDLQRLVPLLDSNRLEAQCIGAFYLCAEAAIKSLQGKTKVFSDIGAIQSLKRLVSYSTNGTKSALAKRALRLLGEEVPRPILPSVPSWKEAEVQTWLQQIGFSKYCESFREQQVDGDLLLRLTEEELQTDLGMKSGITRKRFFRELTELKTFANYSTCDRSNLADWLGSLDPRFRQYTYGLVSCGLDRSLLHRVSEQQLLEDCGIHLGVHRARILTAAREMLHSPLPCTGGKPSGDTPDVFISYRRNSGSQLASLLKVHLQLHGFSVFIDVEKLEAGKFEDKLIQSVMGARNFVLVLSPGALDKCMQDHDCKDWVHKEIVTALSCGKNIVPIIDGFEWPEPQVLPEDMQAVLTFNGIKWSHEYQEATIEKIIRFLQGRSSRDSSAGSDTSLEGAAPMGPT
Outline: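 Reaction buffer was Dulbecco's PBS. Compound and 2 nM human SARM1 (50-724) were pre-incubated 15 min at room temperature, then […] NAD^+ and 200 µM NMN activator were added for 1 h at room temperature. Acetonitrile (70%) stop, LC-MS/MS read-out, IC50 values.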

`CN(CCCO)c1cc(F)c2[nH]c(-c3nncn3-c3cnccc3C(F)(F)F)nc2c1` [Compound 451, 3-((4-fluoro-2-(4-(4-(trifluoromethyl)pyridin-3-yl)-4H-1,2,4-triazol-3-yl)-1H-benzo[d]imidazol-6-yl)(methyl)amino)propan-1-ol] and `OCC1CC1c1cc(F)c2[nH]c(-c3nncn3-c3cnccc3C(F)(F)F)nc2c1` (stereo not shown) [Compound 416, (2-(7-fluoro-2-(4-(4-(trifluoromethyl)pyridin-3-yl)-4H-1,2,4-triazol-3-yl)-1H-benzo[d]imidazol-5-yl)cyclopropyl)methanol] cannot be ordered by IC50: no more than 100 nM for the first, no more than 100 nM for the second.

`Cc1c(Cl)ccnc1-n1cnnc1-c1nc2cc(C(F)(F)F)ccc2[nH]1` [Example 67] and `FC(F)(F)c1ccc2[nH]c(-c3nncn3-c3cccc(Cl)c3Cl)nc2c1` [Example 15, 2-[4-(2,3-dichlorophenyl)-1,2,4-triazol-3-yl]-5-(trifluoromethyl)-1H-benzimidazole] cannot be ordered by IC50: no more than 100 nM for the first, no more than 100 nM for the second.

`N#CC1(c2ccc3[nH]c(-c4nncn4-c4cccc(F)c4Cl)nc3c2)CC12CC2` (stereo not shown) [Compound 229, 1-(2-(4-(2-chloro-3-fluorophenyl)-4H-1,2,4-triazol-3-yl)-1H-benzo[d]imidazol-5-yl)spiro[2.2]pentane-1-carbonitrile] and `FC(F)(F)c1ccc2[nH]c(-c3nncn3-c3ccccc3Cl)nc2c1` [Example 105] cannot be ordered by IC50: no more than 100 nM for the first, no more than 100 nM for the second.

`Cc1ccc2[nH]c(-c3cnccc3-c3cccc(Cl)c3Cl)nc2c1` [Example 23] and `FC(F)(F)c1ccc2[nH]c(-c3nnc(Cl)cc3-c3ccccc3Cl)nc2c1` [Compound 407, 2-(6-chloro-4-(2-chlorophenyl)pyridazin-3-yl)-5-(trifluoromethyl)-1H-benzo[d]imidazole] cannot be ordered by IC50: no more than 100 nM for the first, no more than 100 nM for the second.

`FC(F)c1ccncc1-n1cnnc1-c1nc2cc(C(F)(F)F)ccc2[nH]1` [Compound 252, 2-(4-(4-(difluoromethyl)pyridin-3-yl)-4H-1,2,4-triazol-3-yl)-5-(trifluoromethyl)-1H-benzo[d]imidazole] and `FC(F)(Cl)Oc1cnccc1-n1cnnc1-c1nc2cc(C(F)(F)F)ccc2[nH]1` [Compound 215, 2-(4-(3-(chlorodifluoromethoxy)pyridin-4-yl)-4H-1,2,4-triazol-3-yl)-5-(trifluoromethyl)-1H-benzo[d]imidazole] cannot be ordered by IC50: no more than 100 nM for the first, no more than 100 nM for the second.

`Cc1cc(-c2cnccc2C(F)(F)F)c(-c2nc3cc(C(F)(F)F)ccc3[nH]2)nn1` [Compound 377, 2-(6-Methyl-4-(4-(trifluoromethyl)pyridin-3-yl)pyridazin-3-yl)-5-(trifluoromethyl)-1H-benzo[d]imidazole] and `Fc1cc(C(F)(F)F)cc2nc(-c3nnccc3-c3cnccc3C(F)(F)F)[nH]c12` [Compound 303, 7-Fluoro-5-(trifluoromethyl)-2-(4-(4-(trifluoromethyl)pyridin-3-yl)pyridazin-3-yl)-1H-benzo[d]imidazole] cannot be ordered by IC50: 100 to 500 nM for the first, no more than 100 nM for the second.

`FC(F)(F)c1ccc2[nH]c(-c3nncn3-c3cncnc3C(F)(F)F)nc2c1` [Compound 415, 5-(trifluoromethyl)-2-(4-(4-(trifluoromethyl)pyrimidin-5-yl)-4H-1,2,4-triazol-3-yl)-1H-benzo[d]imidazole] and `FC(F)c1nnc(-c2nc3cc(C(F)(F)F)ccc3[nH]2)n1-c1cnccc1C(F)(F)F` [Compound 306, 2-(5-(difluoromethyl)-4-(4-(trifluoromethyl)pyridin-3-yl)-4H-1,2,4-triazol-3-yl)-5-(trifluoromethyl)-1H-benzo[d]imidazole] cannot be ordered by IC50: no more than 100 nM for the first, no more than 100 nM for the second.

`Fc1cc(C(F)(F)F)cc2nc(-c3nncn3-c3cc(C(F)F)ccc3Cl)[nH]c12` [Compound 200, 2-(4-(2-chloro-5-(difluoromethyl)phenyl)-4H-1,2,4-triazol-3-yl)-7-fluoro-5-(trifluoromethyl)-1H-benzo[d]imidazole] and `CC1CC1c1cc(F)c2[nH]c(-c3nncn3-c3cnccc3C(F)(F)F)nc2c1` (stereo not shown) [Compound 330, 7-fluoro-5-(2-methylcyclopropyl)-2-(4-(4-(trifluoromethyl)pyridin-3-yl)-4H-1,2,4-triazol-3-yl)-1H-benzo[d]imidazole] cannot be ordered by IC50: no more than 100 nM for the first, no more than 100 nM for the second.

`Fc1c(-c2nncn2-c2cnccc2C(F)(F)F)[nH]c2ccc(C(F)(F)F)cc12` [Compound 259, 3-fluoro-5-(trifluoromethyl)-2-(4-(4-(trifluoromethyl)pyridin-3-yl)-4H-1,2,4-triazol-3-yl)-1H-indole] and `FC(F)(F)c1ccc2[nH]c(-c3nncn3-c3cnccc3C(F)(F)F)c(-c3ccncc3)c2c1` [Compound 386, 3-(4-pyridyl)-5-(trifluoromethyl)-2-[4-[4-(trifluoromethyl)-3-pyridyl]-1,2,4-triazol-3-yl]-1H-indole] cannot be ordered by IC50: no more than 100 nM for the first, no more than 100 nM for the second.

`CS(=O)(=O)Cc1nnc(-c2nc3cc(C(F)(F)F)ccc3[nH]2)n1-c1cccc(Cl)c1Cl` [Example 88, 2-(4-(2,3-dichlorophenyl)-5-((methylsulfonyl)methyl)-4H-1,2,4-triazol-3-yl)-5-(trifluoromethyl)-1H-benzo[d]imidazole] and `Fc1cccc(-n2c(CCc3nccs3)nnc2-c2nc3cc(C(F)(F)F)ccc3[nH]2)c1Cl` [Compound 419, 2-(2-(4-(2-chloro-3-fluorophenyl)-5-(5-(trifluoromethyl)-1H-benzo[d]imidazol-2-yl)-4H-1,2,4-triazol-3-yl)ethyl)thiazole] cannot be ordered by IC50: no more than 100 nM for the first, 100 to 500 nM for the second.

First: FC(F)(F)c1ccc2[nH]c(N3CCC3c3ccccc3)nc2c1 (stereo not shown) [Compound 344, 2-(2-phenylazetidin-1-yl)-5-(trifluoromethyl)-1H-benzo[d]imidazole]
Second: CC(C)(C)c1ccc2[nH]c(-c3nncn3-c3cnccc3C(F)(F)F)cc2n1 [Compound 348, 5-(tert-butyl)-2-(4-(4-(trifluoromethyl)pyridin-3-yl)-4H-1,2,4-triazol-3-yl)-1H-pyrrolo[3,2-b]pyridine]
The IC50 of the first is higher: 500 to 1000 nM for the first, no more than 100 nM for the second. The second is the more potent here.

`CC(c1cc(F)c2[nH]c(-c3nncn3-c3cnccc3C(F)(F)F)nc2c1)c1nccs1` (single isomer, unassigned) [Compound 433, 2-(1-(7-fluoro-2-(4-(4-(trifluoromethyl)pyridin-3-yl)-4H-1,2,4-triazol-3-yl)-1H-benzo[d]imidazol-5-yl)ethyl)thiazole] and `Fc1cc(C2(c3nccs3)CC2)cc2nc(-c3nncn3-c3cnccc3C(F)(F)F)[nH]c12` [Compound 422, 2-[1-[7-fluoro-2-[4-[4-(trifluoromethyl)-3-pyridyl]-1,2,4-triazol-3-yl]-1H-benzimidazol-5-yl]cyclopropyl]thiazole] cannot be ordered by IC50: no more than 100 nM for the first, no more than 100 nM for the second.

In the case of `Cc1ccc2[nH]c(-c3c(CO)ccn3C3CCCC3)nc2c1` [Compound 17, (1-cyclopentyl-2-(5-methyl-1H-benzo[d]imidazol-2-yl)-1H-pyrrol-3-yl)methanol], the IC50 is reported as greater than 1000 nM.
